Data on one compound can be found in patent publication US11793824B2, “Administration of nicotinamide mononucleotide in the treatment of disease” (Washington University, priority 2013, dated 2023).

Data set [1] is described as follows: Fundus biomicroscopy of aged mice. Type of data set: in vivo, mouse. The settings on record: 18 months of age. Here is the method:
(§1) A 12 month-long NMN administration study using wild-type mice under a regular chow-fed condition was conducted. NMN was administered through drinking water, and two doses of NMN, 100 and 300 mg/kg body weight/day, were tested. […] To assess beneficial and possible adverse effects of NMN, a variety of physiological parameters were periodically monitored, including body weight, body temperature, food and water intake, fed and fasted blood glucose levels, fed and fasted plasma lipid panels, and glucose and insulin tolerance, in NMN-administered and control mice. Blood chemistry, blood cell counts, urine strip test, and other physiological tests including physical activity test were also checked.
In the long-term NMN administration study (See Methods; Administration of NMN through Drinking Water and Determination of NMN Stability and Toxicity), retinal function was evaluated by fundus biomicroscopy and electroretinography (ERG). FIG. 11 illustrates fundus biomicroscopy images from control and NMN-administered mice. For each group, five mice were examined, and two representative images are shown.

Data set [2] can be described thus: 12 month-long NMN administration study: adverse effects and toxicity. Type of data set: in vivo. Here is the method: as §1
Data set [3] is described as follows: Contextual and cued fear conditioning tests in HFD-fed mice. Type of data set: in vivo, mouse. Here is the method: Two groups of wild-type C57BL/6 mice at […] of age were fed a high fat diet (HFD) containing 42% of the total calories from fat (TD88137; Harlan Taklad). NMN at a dose of 300 mg/kg/day began to be administered through drinking water to one of the HFD-fed groups after 4 months of HFD feeding. The control group was fed a regular chow. After 8 months of HFD feeding with or without 4 months of NMN treatment, the contextual fear conditioning test, a sensitive test to examine the memory function that involves the hippocampus, was conducted for mice in these three groups.
FIG. 10 illustrates freezing responses of regular chow-fed control, HFD-fed, and HFD-fed, NMN-treated mice in contextual and cued fear conditioning tests on Day 1, Day 2 and Day3. NMN was administered at the dose of 300 mg/kg/day for 4 months. On Day 1 of the study, mice were given an auditory cue and then a mild electric foot shock, and a time of freezing was analyzed individually. On Day 2, the trained mice were placed into a training chamber with no tone cues, and their freezing responses were evaluated. […] The results were analyzed by one-way ANOVA with unweighted quadratic term. All values are presented as mean±SEM (n=17, 15, and 12 for regular chow-fed control, HFD-fed, and HFD-fed, NMN-treated mice, respectively). **P<0.01; *P<0.05.

Structures are written as SMILES. “Also recorded” adds a separate entry of the source.

In the case of `NC(=O)c1ccc[n+]([C@@H]2O[C@H](COP(=O)([O-])O)[C@@H](O)[C@H]2O)c1` [NMN, nicotinamide mononucleotide], the results for the “mice with dramatic reductions in intraretinal whitish deposits” value in data set [1] (100 mg/kg) and in data set [1] (300 mg/kg) were “two” and “four”, respectively. Also, the “adverse effects or signs of toxicity” value in data set [2] (100 mg/kg or 300 mg/kg body weight/day in drinking water, 12 months) is listed as “no adverse effects, such as malnutrition, or signs of toxicity were observed; also recorded: without showing any serious side effects”. Moreover, the water intake result in data set [2] (NMN in drinking water, through the experimental period) was “did not change significantly”. Also, the “adverse effect on glucose metabolism” value in data set [2] (long-term NMN administration) was “does not show any adverse effect on glucose metabolism”. The “freezing responses, conditioning session and cued fear conditioning” value in data set [3] (Day 1 and Day 3, NMN 300 mg/kg/day for 4 months) is reported as “did not differ from those of control mice”. For the same compound, the “freezing responses, contextual fear conditioning test” value in data set [3] (Day 2, NMN 300 mg/kg/day for 4 months) is “indistinguishable from those of regular chow-fed control mice”.
